# According to ChEMBL document CHEMBL1201862, “PubChem BioAssay data set” (2004):
#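 Tested at 5 concentrations; 48 h exposure; 96-well plates; endpoints linearly interpolated, else capped at highest concentration. Abbreviation: GI50, concentration required for 50% inhibition of growth.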 Active and inactive are the calls of the source. Cut-off read from the data, not from the text of the source: active = GI50 up to about 1.1 µM and inactive = higher.
# What was measured:
# Experiment in all cases: inhibition of tumour cell growth, NCI panel, 48 h
# [1] = test system: 786-0
# [2] = test system: A498
# [3] = test system: A549
# [4] = test system: ACHN
# [5] = test system: BT-549
# [6] = test system: CAKI-1
# [7] = test system: CCRF-CEM
# [8] = test system: COLO 205
# [9] = test system: DU-145
# [10] = test system: EKVX
# [11] = test system: HCC 2998
# [12] = test system: HCT-116
# [13] = test system: HCT-15
# [14] = test system: HOP-62
# [15] = test system: HOP-92
# [16] = test system: HT-29
# [17] = test system: Hs-578T
# [18] = test system: IGROV-1
# [19] = test system: K562
# [20] = test system: KM12
# [21] = test system: LOX IMVI
# [22] = test system: M14
# [23] = test system: MCF7
# [24] = test system: MDA-MB-231
# [25] = test system: MDA-MB-435
# [26] = test system: MOLT-4
# [27] = test system: NCI-H226
# [28] = test system: NCI-H23
# [29] = test system: NCI-H522
# [30] = test system: NCI/ADR-RES
# [31] = test system: OVCAR-3
# [32] = test system: OVCAR-4
# [33] = test system: OVCAR-5
# [34] = test system: OVCAR-8
# [35] = test system: PC-3
# [36] = test system: RPMI-8226
# [37] = test system: RXF 393
# [38] = test system: SF-268
# [39] = test system: SF-295
# [40] = test system: SF-539
# [41] = test system: SK-MEL-28
# [42] = test system: SK-MEL-2
# [43] = test system: SK-MEL-5
# [44] = test system: SK-OV-3
# [45] = test system: SN12C
# [46] = test system: SNB-19
# [47] = test system: SNB-75
# [48] = test system: SR
# [49] = test system: SW-620
# [50] = test system: T47D
# [51] = test system: TK-10
# [52] = test system: U-251
# [53] = test system: UACC-257
# [54] = test system: UACC-62
# [55] = test system: UO-31
# [56] = test system: HL-60
# [57] = test system: MDA-N
# [58] = test system: Malme-3M
smiles,measurement,setting,value
COc1ccc2c(c1)C1c3ccccc3CCN1CCC2 (stereo not given),GI50,[1],42.1 µM (inactive)
same,GI50,[2],69.3 µM (inactive)
same,GI50,[3],51.2 µM (inactive)
same,GI50,[4],64.9 µM (inactive)
same,GI50,[5],24.9 µM (inactive)
same,GI50,[6],> 100 µM (inactive)
same,GI50,[7],38.5 µM (inactive)
same,GI50,[8],44.7 µM (inactive)
same,GI50,[9],> 100 µM (inactive)
same,GI50,[10],> 100 µM (inactive)
same,GI50,[11],23.4 µM (inactive)
same,GI50,[12],32.1 µM (inactive)
same,GI50,[13],39.4 µM
same,GI50,[14],58.6 µM (inactive)
same,GI50,[15],70.3 µM (inactive)
same,GI50,[16],33.3 µM (inactive)
same,GI50,[17],42.9 µM (inactive)
same,GI50,[18],56.6 µM (inactive)
same,GI50,[19],33 µM (inactive)
same,GI50,[20],29.4 µM (inactive)
same,GI50,[21],44.7 µM (inactive)
same,GI50,[22],32.1 µM (inactive)
same,GI50,[23],41.1 µM (inactive)
same,GI50,[24],35.8 µM (inactive)
same,GI50,[25],19.9 µM (inactive)
same,GI50,[26],35.6 µM (inactive)
same,GI50,[27],45.3 µM (inactive)
same,GI50,[28],47.9 µM (inactive)
same,GI50,[29],28.4 µM (inactive)
same,GI50,[30],31.2 µM (inactive)
same,GI50,[31],73.8 µM (inactive)
same,GI50,[32],> 100 µM (inactive)
same,GI50,[33],93.1 µM (inactive)
same,GI50,[34],54.5 µM (inactive)
same,GI50,[35],29.2 µM (inactive)
same,GI50,[36],28.8 µM (inactive)
same,GI50,[37],47.6 µM (inactive)
same,GI50,[38],56.6 µM (inactive)
same,GI50,[39],23.8 µM (inactive)
same,GI50,[40],47.3 µM (inactive)
same,GI50,[41],74 µM (inactive)
same,GI50,[42],23.1 µM (inactive)
same,GI50,[43],29.2 µM (inactive)
same,GI50,[44],36.6 µM (inactive)
same,GI50,[45],71.1 µM (inactive)
same,GI50,[46],55.2 µM (inactive)
same,GI50,[47],19.3 µM (inactive)
same,GI50,[48],32.2 µM (inactive)
same,GI50,[49],28.2 µM (inactive)
same,GI50,[50],> 100 µM (inactive)
same,GI50,[51],> 100 µM (inactive)
same,GI50,[52],32.6 µM (inactive)
same,GI50,[53],39.6 µM (inactive)
same,GI50,[54],23.7 µM (inactive)
same,GI50,[55],26.9 µM (inactive)
Cc1c(CCN=P(c2ccccc2)(c2ccccc2)c2ccccc2)c(=O)n2c([nH]c3ccccc32)c1C#N,GI50,[1],> 10 µM (inactive)
same,GI50,[3],> 10 µM (inactive)
same,GI50,[6],> 10 µM (inactive)
same,GI50,[7],6.93 µM (inactive)
same,GI50,[8],> 10 µM (inactive)
same,GI50,[9],> 10 µM (inactive)
same,GI50,[10],> 10 µM (inactive)
same,GI50,[11],> 10 µM (inactive)
same,GI50,[13],> 10 µM
same,GI50,[56],7.21 µM (inactive)
same,GI50,[14],> 10 µM (inactive)
same,GI50,[16],> 10 µM (inactive)
same,GI50,[18],> 10 µM (inactive)
same,GI50,[19],8.36 µM (inactive)
same,GI50,[20],> 10 µM (inactive)
same,GI50,[21],> 10 µM (inactive)
same,GI50,[22],> 10 µM (inactive)
same,GI50,[23],> 10 µM (inactive)
same,GI50,[24],> 10 µM (inactive)
same,GI50,[57],> 10 µM (inactive)
same,GI50,[26],6.19 µM (inactive)
same,GI50,[58],> 10 µM (inactive)
same,GI50,[28],> 10 µM (inactive)
same,GI50,[34],> 10 µM (inactive)
same,GI50,[35],> 10 µM (inactive)
same,GI50,[36],> 10 µM (inactive)
same,GI50,[37],> 10 µM (inactive)
same,GI50,[38],> 10 µM (inactive)
same,GI50,[39],> 10 µM (inactive)
same,GI50,[41],> 10 µM (inactive)
same,GI50,[43],> 10 µM (inactive)
same,GI50,[44],> 10 µM (inactive)
same,GI50,[45],> 10 µM (inactive)
same,GI50,[47],> 10 µM (inactive)
same,GI50,[48],8.75 µM (inactive)
same,GI50,[49],> 10 µM (inactive)
same,GI50,[50],> 10 µM (inactive)
same,GI50,[51],> 10 µM (inactive)
same,GI50,[53],> 10 µM (inactive)
same,GI50,[54],> 10 µM (inactive)
